Here are results for 15 molecules from the CheMixHub ionic liquid set.

Structures are written as SMILES. ± gives the uncertainty stated by the source.

This series can be described thus: xn = mol fraction of the nth substance listed.

In the case of `CCCC[n+]1ccn(C)c1.F[P-](F)(F)(F)(F)F` + CCC(C)=O, the viscosity is recorded as 43.3 ± 1.4 mPa·s (298.15 K, 101.3 kPa, x2 = 0.3016); 23.55 ± 0.66 mPa·s (298.15 K, 101.3 kPa, x2 = 0.4024); 18.18 ± 0.49 mPa·s (298.15 K, 101.3 kPa, x2 = 0.4485); 5.15 ± 0.13 mPa·s (298.15 K, 101.3 kPa, x2 = 0.6517).
On to `CC#N` + CCCCCCCC(=O)[O-].c1c[nH+]c[nH]1, for which the viscosity by setting is: (298.15 K, 101.3 kPa, x1 = 1) 0.333 ± 0.013 mPa·s; (323.15 K, 101.3 kPa, x1 = 1) 0.223 ± 0.01 mPa·s.
Turning to `CC(CC(C)(C)C)CP(=O)([O-])CC(C)CC(C)(C)C.CCCCCCCCCCCCCC[P+](CCCCCC)(CCCCCC)CCCCCC` + CCCCCCCCCCCC, the viscosity is 82 ± 2.7 mPa·s (298.15 K, 101 kPa, x1 = 0.4684); 757 ± 46 mPa·s (303.15 K, 101 kPa, x1 = 1); 56.3 ± 1.7 mPa·s (308.15 K, 101 kPa, x1 = 0.4684); 103 ± 4 mPa·s (318.15 K, 101 kPa, x1 = 0.6647); 50.4 ± 1.6 mPa·s (338.15 K, 101 kPa, x1 = 0.6647); 43.4 ± 1.4 mPa·s (343.15 K, 101 kPa, x1 = 0.6647). Where the note is “343.15 K, 101 kPa, x1 = 1”, this molecule displayed a viscosity of 111 ± 4 mPa·s.
`CC(CC(C)(C)C)CP(=O)([O-])CC(C)CC(C)(C)C.CCCCCCCCCCCCCC[P+](CCCCCC)(CCCCCC)CCCCCC` + CCCCCCCCCCCC + O showed a viscosity (303.15 K, 100 kPa, x2 = 0, x3 = 0.8861) of 119.5 ± 7.9 mPa·s.
`CCCCCCCCCCCCCCCCCC[n+]1ccn(C)c1.O=S(=O)([N-]S(=O)(=O)C(F)(F)F)C(F)(F)F` + CCCCCCCCCCCCCCCCn1cc[n+](C)c1.O=S(=O)([N-]S(=O)(=O)C(F)(F)F)C(F)(F)F registered a viscosity (323 K, 101 kPa, x2 = 0.621) of 89.5 ± 2.1 mPa·s.
Regarding `CCCCCCCCCCCCCCCCCC[n+]1ccn(C)c1.O=S(=O)([N-]S(=O)(=O)C(F)(F)F)C(F)(F)F` + CCCCCCCCCCCCCC[n+]1ccn(C)c1.O=S(=O)([N-]S(=O)(=O)C(F)(F)F)C(F)(F)F, the viscosity (323 K, 101 kPa, x2 = 0.7675) amounted to 62.9 ± 1.3 mPa·s.
`CCCCCCCCCCCCCCCC[n+]1ccn(C)c1.[Cl-]` + CCCCCCCCCCCC[N+](C)(C)C.[Br-] + O: the electrical conductivity turned out to be 0.025 ± 0.00051 S/m (303.15 K, 100 kPa, frequency 0.002 MHz, x1 = 5.946e-05, x2 = 1.478e-05); 0.0286 ± 0.00059 S/m (303.15 K, 100 kPa, frequency 0.002 MHz, x1 = 7.207e-05, x2 = 1.802e-05); 0.0355 ± 0.00073 S/m (303.15 K, 100 kPa, frequency 0.002 MHz, x1 = 9.712e-05, x2 = 2.433e-05); 0.0202 ± 0.00041 S/m (313.15 K, 100 kPa, frequency 0.002 MHz, x1 = 6.13e-06, x2 = 2.433e-05); 0.0184 ± 0.00037 S/m (313.15 K, 100 kPa, frequency 0.002 MHz, x1 = 7.75e-06, x2 = 1.802e-05); 0.0146 ± 0.0003 S/m (313.15 K, 100 kPa, frequency 0.002 MHz, x1 = 2.09e-05, x2 = 2.34e-06). For the same molecule, the electrical conductivity (323.15 K, 100 kPa, frequency 0.002 MHz, x1 = 9.19e-06, x2 = 2.126e-05) stood at 0.0259 ± 0.00052 S/m.
On to `CCCC[n+]1ccn(C)c1.O=S(=O)([N-]S(=O)(=O)C(F)(F)F)C(F)(F)F` + CCCCCCCCCO, for which the viscosity (298 K, 100 kPa, x1 = 1) came to 49.7 ± 1.3 mPa·s.
On the same count and under the same terms, then `CCCC[n+]1ccn(C)c1.O=S(=O)([N-]S(=O)(=O)C(F)(F)F)C(F)(F)F` + CCCCCCCCO, with 49.7 ± 1.3 mPa·s.
`CCCCCCO` + CCCCCCCC[n+]1ccc2ccccc2c1.O=S(=O)([N-]S(=O)(=O)C(F)(F)F)C(F)(F)F had a viscosity (328.15 K, 101 kPa, x1 = 1) of 1.97 ± 0.02 mPa·s.
As for `CN(C)C=O` + CCCCCCCC[n+]1ccn(C)c1.F[P-](F)(F)(F)(F)F, the viscosity runs as follows: (293.15 K, 101 kPa, x2 = 0) 0.881 ± 0.03 mPa·s; (303.15 K, 101 kPa, x2 = 0) 0.771 ± 0.029 mPa·s; (313.15 K, 101 kPa, x2 = 0) 0.668 ± 0.028 mPa·s; (323.15 K, 101 kPa, x2 = 0) 0.605 ± 0.028 mPa·s; (333.15 K, 101 kPa, x2 = 0) 0.553 ± 0.025 mPa·s; (353.15 K, 101 kPa, x2 = 0) 0.479 ± 0.02 mPa·s. In addition, where the note is “363.15 K, 101 kPa, x2 = 0”, the viscosity is on record as 0.447 ± 0.018 mPa·s.
For the molecule `CN(C)C=O` + CCCCCCCCn1cc[n+](C)c1.N#C[S-], the viscosity runs as follows: (293.15 K, 101 kPa, x2 = 0) 0.881 ± 0.026 mPa·s; (303.15 K, 101 kPa, x2 = 0) 0.771 ± 0.023 mPa·s; (313.15 K, 101 kPa, x2 = 0) 0.668 ± 0.022 mPa·s; (323.15 K, 101 kPa, x2 = 0) 0.605 ± 0.021 mPa·s; (333.15 K, 101 kPa, x2 = 0) 0.553 ± 0.019 mPa·s; (353.15 K, 101 kPa, x2 = 0) 0.479 ± 0.015 mPa·s. This molecule also showed a viscosity (363.15 K, 101 kPa, x2 = 0) of 0.447 ± 0.014 mPa·s.
On to `CN1CCCC1=O` + CCCCCCCCn1cc[n+](C)c1.N#C[S-], for which the viscosity reads like this: (288.15 K, 101 kPa, x2 = 0) 2.127 ± 0.023 mPa·s; (298.15 K, 101 kPa, x2 = 0) 1.785 ± 0.02 mPa·s; (308.15 K, 101 kPa, x2 = 0) 1.543 ± 0.018 mPa·s; (318.15 K, 101 kPa, x2 = 0) 1.306 ± 0.017 mPa·s.
Consider `CN(C)C=O` + CCCCCCCCn1cc[n+](C)c1.O=S(=O)([N-]S(=O)(=O)C(F)(F)F)C(F)(F)F, for which the viscosity turned out to be 0.881 ± 0.035 mPa·s (293.15 K, 101 kPa, x2 = 0); 0.771 ± 0.036 mPa·s (303.15 K, 101 kPa, x2 = 0); 0.668 ± 0.037 mPa·s (313.15 K, 101 kPa, x2 = 0); 0.605 ± 0.038 mPa·s (323.15 K, 101 kPa, x2 = 0); 0.553 ± 0.037 mPa·s (333.15 K, 101 kPa, x2 = 0); 0.479 ± 0.029 mPa·s (353.15 K, 101 kPa, x2 = 0). Also, the viscosity (363.15 K, 101 kPa, x2 = 0) came to 0.447 ± 0.023 mPa·s.
Regarding `CCCCCCCCCC[n+]1ccn(C)c1.[Br-]` + CCCCCCCCn1cc[n+](C)c1.[Br-] + O, the electrical conductivity (298.15 K, 101 kPa, x2 = 0.001457, x1 = 0.0002702) stood at 0.7 ± 0.02 S/m; the electrical conductivity (298.15 K, 101 kPa, x2 = 0.002534, x1 = 0.0004683) is 1.01 ± 0.02 S/m; the electrical conductivity (298.15 K, 101 kPa, x2 = 0.003323, x1 = 0.0006123) is 1.2 ± 0.02 S/m; the electrical conductivity (298.15 K, 101 kPa, x2 = 0.003985, x1 = 0.0007203) turned out to be 1.33 ± 0.03 S/m; the electrical conductivity (298.15 K, 101 kPa, x2 = 0.00477, x1 = 0.0008642) is 1.45 ± 0.03 S/m; the electrical conductivity (298.15 K, 101 kPa, x2 = 0.005466, x1 = 0.0009901) was found to be 1.55 ± 0.03 S/m.

For orientation: viscosity means the internal friction of a fluid under shear. Low values mean easy flow, high ones sluggish flow.
